According to patent publication US20100137313A1 (ASTRAZENECA AB, priority 2008, published 2010):

These compounds were tested against S. pneumoniae Topoisomerase IV ATPase (ParE) (Streptococcus pneumoniae serotype 4, UniProt Q59961) (assay: S. pneumoniae Topoisomerase IV ATPase inhibition). Details: values marked * are an average of two or more data points, read-out: % Inh (13 μM) of S. pneumoniae Topoisomerase IV ATPase.
Chain of S. pneumoniae Topoisomerase IV ATPase (ParE) (Q59961 whole entry): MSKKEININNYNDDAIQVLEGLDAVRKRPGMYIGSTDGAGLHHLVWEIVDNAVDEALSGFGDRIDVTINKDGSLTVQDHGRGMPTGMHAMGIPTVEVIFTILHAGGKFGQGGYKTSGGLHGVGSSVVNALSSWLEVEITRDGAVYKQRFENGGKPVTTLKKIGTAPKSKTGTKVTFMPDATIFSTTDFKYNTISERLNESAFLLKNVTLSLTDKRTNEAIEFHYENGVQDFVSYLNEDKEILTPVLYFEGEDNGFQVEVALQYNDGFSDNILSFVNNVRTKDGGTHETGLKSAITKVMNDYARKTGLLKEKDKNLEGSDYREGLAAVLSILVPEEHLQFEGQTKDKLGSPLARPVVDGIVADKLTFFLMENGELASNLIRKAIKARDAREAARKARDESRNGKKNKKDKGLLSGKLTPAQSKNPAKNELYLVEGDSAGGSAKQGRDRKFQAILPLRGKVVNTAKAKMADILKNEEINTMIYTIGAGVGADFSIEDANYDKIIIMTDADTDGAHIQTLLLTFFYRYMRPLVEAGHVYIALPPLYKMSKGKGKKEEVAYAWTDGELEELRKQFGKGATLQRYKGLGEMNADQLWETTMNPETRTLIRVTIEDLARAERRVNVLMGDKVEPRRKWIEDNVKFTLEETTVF
Assay type: biochemical
In short: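 Malachite green/ammonium molybdate phosphate detection, A650. 1.25 nM ParE, 160 μM ATP, sheared salmon sperm DNA 5 μg/ml, 20 mM Tris pH 8.0, 8.0 mM MgCl2. Controls: 2% DMSO = 0%, 20 μM EDTA = 100% inhibition; IC50 over 10 concentrations.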
For `Cn1cncc1CNc1nc(Nc2ccc(F)c(Cl)c2)ncc1-c1cncc(C(=O)O)c1` [Example 281, 5-(2-(3-chloro-4-fluorophenylamino)-4-((1-methyl-1H-imidazol-5-yl)methylamino)pyrimidin-5-yl)nicotinic acid], the inhibition at 13 µM was 95.8%. `O=C(O)c1cncc(-c2cnc(Nc3ccc(F)c(Cl)c3)nc2N2CCC2)c1` [Example 253, 5-[4-(azetidin-1-yl)-2-[(3-chloro-4-fluorophenyl)amino]-pyrimidin-5-yl]pyridine-3-carboxylic acid] gave an inhibition at 13 µM of 75.1%. In the case of `Cc1cc(C)n(-c2nc(Nc3ccc(F)c(Cl)c3)ncc2-c2cccc(/C=C/C(=O)O)c2)n1` [Example 321, (2E)-3-(3-{2-[(3-chloro-4-fluorophenyl)amino]-4-(3,5-dimethyl-1H-pyrazol-1-yl)pyrimidin-5-yl}phenyl)prop-2-enoic acid], the inhibition at 13 µM is reported as 83.7%. `CCCNc1nc(Nc2ccc(F)c(Cl)c2)ncc1-c1cncnc1` [Example 33, N^2-(3-chloro-4-fluorophenyl)-N^4-propyl-5-pyrimidin-5-ylpyrimidine-2,4-diamine] showed an inhibition at 13 µM of 81%. With `CCNS(=O)(=O)c1cncc(-c2cnc(Nc3ccc(F)c(Cl)c3)nc2-n2ccc(C(F)(F)F)n2)c1` [Example 1000, 5-(2-(3-Chloro-4-fluorophenylamino)-4-(3-(trifluoromethyl)-1H-pyrazol-1-yl)pyrimidin-5-yl)-N-ethylpyridine-3-sulfonamide] the inhibition at 13 µM was 64%. Compound `Cc1cnc(C(=O)NCCCNc2nc(Nc3ccc(F)c(Cl)c3)ncc2-c2cncc(C(=O)O)c2)cn1` [Example 278] has an inhibition at 13 µM of 77%. For `COCCCNc1nc(Nc2ccc(F)c(Cl)c2)ncc1-c1cncc(S(C)(=O)=O)c1` [Example 987, N2-(3-chloro-4-fluorophenyl)-N4-(3-methoxypropyl)-5-(5-(methylsulfonyl)pyridin-3-yl)pyrimidine-2,4-diamine], the inhibition at 13 µM was 30%. `CONC(=O)c1cc(-c2cnc(Nc3ccc(F)c(Cl)c3)nc2-n2ccc(C(F)(F)F)n2)cnc1OC` [Example 1101, 5-(2-(3-chloro-4-fluorophenylamino)-4-(3-(trifluoromethyl)-1H-pyrazol-1-yl)pyrimidin-5-yl)-N,2-dimethoxynicotinamide] showed an inhibition at 13 µM of 82%. `COc1cc(F)cc(Nc2ncc(-c3cnc(OC)c(C(=O)NS(C)(=O)=O)c3)c(-n3nc(C(F)(F)F)cc3C)n2)c1` [Example 900, 5-(2-(3-fluoro-5-methoxyphenylamino)-4-(5-methyl-3-(trifluoromethyl)-1H-pyrazol-1-yl)pyrimidin-5-yl)-2-methoxy-N-(methylsulfonyl)nicotinamide] gave an inhibition at 13 µM of 100%. `CCOC(=O)/C=C/c1cccc(-c2cnc(Nc3ccc(F)c(Cl)c3)nc2NCc2cncn2C)c1` [Example 172, (E)-ethyl 3-(3-(2-(3-chloro-4-fluorophenylamino)-4-((1-methyl-1H-imidazol-5-yl)methylamino)pyrimidin-5-yl)phenyl)acrylate] gave an inhibition at 13 µM of -32.8%. For `Cc1cc(C(F)(F)F)nn1-c1nc(Nc2ccc(F)c(Cl)c2)ncc1-c1cnc(OCCN2CCN(C)CC2)c(C(=O)O)c1` [Example 963, 5-(2-(3-chloro-4-fluorophenylamino)-4-(5-methyl-3-(trifluoromethyl)-1H-pyrazol-1-yl)pyrimidin-5-yl)-2-(2-(4-methylpiperazin-1-yl)ethoxy)nicotinic acid], the inhibition at 13 µM was 100%. `COCCOc1ncc(-c2cnc(Nc3ccc(F)c(Cl)c3)nc2-n2nc(C(F)(F)F)cc2C)cc1C(=O)O` [Example 1130, 5-(2-(3-chloro-4-fluorophenylamino)-4-(5-methyl-3-(trifluoromethyl)-1H-pyrazol-1-yl)pyrimidin-5-yl)-2-(2-methoxyethoxy)nicotinic acid] gave an inhibition at 13 µM of 99%. `COCCn1cc(-c2cnc(Nc3cc(OC)cc(OC)c3)nc2-n2nc(C(F)(F)F)cc2C)cc(C(=O)NS(C)(=O)=O)c1=O` [Example 1161, 5-(2-(3,5-dimethoxyphenylamino)-4-(5-methyl-3-(trifluoromethyl)-1H-pyrazol-1-yl)pyrimidin-5-yl)-1-(2-methoxyethyl)-N-(methylsulfonyl)-2-oxo-1,2-dihydropyridine-3-carboxamide] showed an inhibition at 13 µM of 81%. For `O=C(O)c1cncc(-c2cnc(Nc3ccc(F)c(Cl)c3)nc2NCCN2CCOCC2)c1` [Example 227, 5-[2-(3-Chloro-4-fluoro-phenylamino)-4-(2-morpholin-4-yl-ethylamino)-pyrimidin-5-yl]-nicotinic acid], the inhibition at 13 µM was 79%. Work on `CC(C)(C)OC(=O)NCCCNc1nc(Nc2ccc(F)c(Cl)c2)ncc1-c1cncnc1` [Example 74, tert-butyl 3-(2-(3-chloro-4-fluorophenylamino)-5,5′-bipyrimidin-4-ylamino)propylcar-bamate] yielded an inhibition at 13 µM of 103%. `O=C(O)c1cncc(-c2cnc(Nc3ccc(F)c(Cl)c3)nc2N[C@@H]2CCOC2)c1` [Example 279, (R)-5-(2-(3-chloro-4-fluorophenylamino)-4-(tetrahydrofuran-3-ylamino)pyrimidin-5-yl)nicotinic acid] gave an inhibition at 13 µM of 80.4%. For `CCC1COC(C)CN1c1nc(Nc2ccc(F)c(Cl)c2)ncc1-c1cncc(C(=O)O)c1` (stereo not shown) [Example 1058, 5-(2-(3-Chloro-4-fluorophenylamino)-4-(5-ethyl-2-methylmorpholino)pyrimidin-5-yl)nicotinic acid], the inhibition at 13 µM was 87%. `COc1cc(Nc2ncc(-c3cncc(C(=O)CS(C)(=O)=O)c3)c(-n3nc(C(F)(F)F)cc3C)n2)cc(C(F)(F)F)c1` [Example 881, 1-(5-(2-(3-methoxy-5-(trifluoromethyl)phenylamino)-4-(5-methyl-3-(trifluoromethyl)-1H-pyrazol-1-yl)pyrimidin-5-yl)pyridin-3-yl)-2-(methylsulfonyl)ethanone] was tested, and the inhibition at 13 µM was 97%. With `CC(=O)NCCNc1nc(Nc2ccc(F)c(Cl)c2)ncc1-c1cncc(C(=O)O)c1` [Example 221, 5-[4-(2-Acetylamino-ethylamino)-2-(3-chloro-4-fluoro-phenylamino)-pyrimidin-5-yl]-nicotinic acid] the inhibition at 13 µM was 81%. `O=C(O)/C=C/c1cccc(-c2cnc(Nc3ccc(F)c(F)c3)nc2N2CCOCC2)c1` [Example 350, (E)-3-(3-(2-(3,4-difluorophenylamino)-4-morpholinopyrimidin-5-yl)phenyl)acrylic acid] showed an inhibition at 13 µM of 69%. `CN(C)CCCNc1nc(Nc2ccc(F)c(Cl)c2)ncc1-c1ccc(C(=O)NCc2ccccc2)cc1` [Example 365, N-benzyl-4-(2-(3-chloro-4-fluorophenylamino)-4-(3-(dimethylamino)propylamino)pyrimidin-5-yl) benzamide] was tested, and the inhibition at 13 µM was 110%. Compound `CCOC(=O)c1cncc(-c2cnc(Nc3ccc(F)c(Cl)c3)nc2N2C(C)CCC2C)c1` (stereo not shown) [Example 125, ethyl 5-[2-[(3-chloro-4-fluorophenyl)amino]-4-(2,5-dimethylpyrrolidin-1-yl)pyrimidin-5-yl]pyridine-3-carboxylate] has an inhibition at 13 µM of 17.5%. `O=C(O)c1cncc(-c2cnc(Nc3ccc(F)c(Cl)c3)nc2NCCc2ccncc2)c1` [Example 230, 5-[2-(3-Chloro-4-fluoro-phenylamino)-4-(2-pyridin-4-yl-ethylamino)-pyrimidin-5-yl]-nicotinic acid] gave an inhibition at 13 µM of 79.6%. `COc1cc(C)cc(Nc2ncc(-c3cncc(C(=O)O)c3)c(-n3ccc(C(F)(F)F)n3)n2)c1` [Example 776, 5-{2-[(3-methoxy-5-methylphenyl)amino]-4-[3-(trifluoromethyl)-1H-pyrazol-1-yl]pyrimidin-5-yl}pyridine-3-carboxylic acid] gave an inhibition at 13 µM of 100%. `O=C(O)c1cc(-c2cnc(Nc3ccc(F)c(Cl)c3)nc2-n2ccc(C(F)(F)F)n2)cnc1OCCN1CCOCC1` [Example 1140, 5-(2-(3-chloro-4-fluorophenylamino)-4-(3-(trifluoromethyl)-1H-pyrazol-1-yl)pyrimidin-5-yl)-2-(2-morpholinoethoxy)nicotinic acid] gave an inhibition at 13 µM of 100%. `COc1cc(C)cc(Nc2ncc(-c3cncc(C(=O)O)c3)c(-n3nc(C(F)(F)F)cc3C)n2)c1` [Example 777, 5-{2-[(3-methoxy-5-methylphenyl)amino]-4-[5-methyl-3-(trifluoromethyl)-1H-pyrazol-1-yl]pyrimidin-5-yl}pyridine-3-carboxylic acid] was tested, and the inhibition at 13 µM was 100%. `CN(C)C(=O)N1CCN(c2nc(Nc3ccc(F)c(Cl)c3)ncc2-c2cccc(/C=C/C(=O)O)c2)CC1` [Example 291, (E)-3-(3-(2-(3-chloro-4-fluorophenylamino)-4-(4-(dimethylcarbamoyl)-piperazin-1-yl)pyrimidin-5-yl)phenyl)acrylic acid] gave an inhibition at 13 µM of 90.1%. Compound `CCOC(=O)c1cncc(-c2cnc(Nc3ccc(F)c(Cl)c3)nc2NCc2cnc(C)cn2)c1` [Example 115, ethyl 5-[2-[(3-chloro-4-fluorophenyl)amino]-4-[(5-methylpyrazin-2-yl)methylamino]pyrimidin-5-yl]pyridine-3-carboxylate] has an inhibition at 13 µM of 28.8%. `CC(=O)NCCCNc1nc(Nc2ccc(F)c(Cl)c2)ncc1-c1cncnc1` [Example 377, N-(3-(2-(3-chloro-4-fluorophenylamino)-5,5′-bipyrimidin-4-ylamino)propyl)acetamide] showed an inhibition at 13 µM of 78.9%. `CC(C)Oc1ncc(-c2cnc(Nc3ccc(F)c(Cl)c3)nc2-n2ccc(C(F)(F)F)n2)cc1C(=O)O` [Example 959, 5-(2-(3-chloro-4-fluorophenylamino)-4-(3-(trifluoromethyl)-1H-pyrazol-1-yl)pyrimidin-5-yl)-2-isopropoxynicotinic acid] showed an inhibition at 13 µM of 93%. `CCn1cc(-c2cnc(Nc3cc(C)cc(OC)c3)nc2-n2nc(C(F)(F)F)cc2C)cc(C(=O)NS(C)(=O)=O)c1=O` [Example 1176, 1-ethyl-5-{2-[(3-methoxy-5-methylphenyl)amino]-4-[5-methyl-3-(trifluoromethyl)-1H-pyrazol-1-yl]pyrimidin-5-yl}-N-(methylsulfonyl)-2-oxo-1,2-dihydropyridine-3-carboxamide] was tested, and the inhibition at 13 µM was 100%.
